Measured values from the supplement of paper PMC10883282.
± gives the standard deviation of the averaged measurements.

What was measured:
Assay in all cases: relative viability vs DMSO control (72 h) (fraction); higher = more viable cells
[1] = system: SW872
How it was run: (§1)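 Plates held 72 h at 37 °C and 5% CO2 contained sarcoma cell lines seeded in 384-well format to reach 80–90% confluence, plus 2.5 µl of serially diluted compound added after 24 h. Source plate concentrations ran from 10 mM to 0.0002 mM, with 0.1% DMSO as vehicle and a 5 µM positive control. Percent growth from ATPLite readings, averaged over up to triplicate wells, gave relative viability. Values were rescaled with 1 as full and 0 as none.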

[2] = system: A204
How it was run: as §1

[3] = system: SYO-1
How it was run: as §1

[4] = system: SK-ES-1
How it was run: as §1

[5] = system: SW982
How it was run: as §1

[6] = system: HS729
How it was run: as §1

[7] = system: KHOS-240S
How it was run: as §1

[8] = system: SW1353
How it was run: as §1

[9] = system: G401
How it was run: as §1

[10] = system: SW684
How it was run: as §1

[11] = system: MES-SA
How it was run: as §1

[12] = system: SK-LMS-1
How it was run: as §1

Cn1cnc2c(F)c(Nc3ccc(Br)cc3Cl)c(C(=O)NOCCO)cc21 [Selumetinib]
Conditions	relative viability
[1], 0.00017 µM	0.957 ± 0.066
[1], 0.00051 µM	0.985 ± 0.053
[1], 0.00152 µM	0.951 ± 0.048
[1], 0.00457 µM	0.938 ± 0.051
[1], 0.01372 µM	0.894 ± 0.02
[1], 0.04115 µM	0.758 ± 0.01
[1], 0.1235 µM	0.654 ± 0.03
[1], 0.3704 µM	0.58 ± 0.046
[1], 1.111 µM	0.58 ± 0.01
[1], 3.333 µM	0.562 ± 0.028
[1], 10 µM	0.545 ± 0.019
[2], 0.00017 µM	1.03 ± 0.058
[2], 0.00051 µM	1.02 ± 0.068
[2], 0.00152 µM	1.01 ± 0.027
[2], 0.00457 µM	1.055 ± 0.01
[2], 0.01372 µM	0.988 ± 0.029
[2], 0.04115 µM	0.977 ± 0.0054
[2], 0.1235 µM	0.947 ± 0.065
[2], 0.3704 µM	0.973 ± 0.013
[2], 1.111 µM	0.939 ± 0.032
[2], 3.333 µM	0.9367 ± 0.0092
[2], 10 µM	0.811 ± 0.031
[3], 0.00017 µM	0.937 ± 0.012
[3], 0.00051 µM	0.931 ± 0.011
[3], 0.00152 µM	0.9523 ± 0.009
[3], 0.00457 µM	0.9263 ± 0.0047
[3], 0.01372 µM	0.8956 ± 0.0039
[3], 0.04115 µM	0.869 ± 0.015
[3], 0.1235 µM	0.829 ± 0.019
[3], 0.3704 µM	0.805 ± 0.018
[3], 1.111 µM	0.778 ± 0.015
[3], 3.333 µM	0.733 ± 0.032
[3], 10 µM	0.695 ± 0.042
[4], 0.00017 µM	0.944 ± 0.098
[4], 0.00051 µM	0.961 ± 0.07
[4], 0.00152 µM	0.951 ± 0.064
[4], 0.00457 µM	0.956 ± 0.042
[4], 0.01372 µM	0.951 ± 0.074
[4], 0.04115 µM	0.929 ± 0.044
[4], 0.1235 µM	0.932 ± 0.05
[4], 0.3704 µM	0.925 ± 0.052
[4], 1.111 µM	0.925 ± 0.064
[4], 3.333 µM	0.925 ± 0.078
[4], 10 µM	0.87 ± 0.041
[5], 0.00017 µM	1.01 ± 0.045
[5], 0.00051 µM	1.01 ± 0.021
[5], 0.00152 µM	1.02 ± 0.042
[5], 0.00457 µM	1.01 ± 0.032
[5], 0.01372 µM	0.99 ± 0.018
[5], 0.04115 µM	0.956 ± 0.034
[5], 0.1235 µM	0.9336 ± 0.0056
[5], 0.3704 µM	0.902 ± 0.025
[5], 1.111 µM	0.876 ± 0.0069
[5], 3.333 µM	0.835 ± 0.013
[5], 10 µM	0.804 ± 0.041
[6], 0.00017 µM	0.898 ± 0.086
[6], 0.00051 µM	0.929 ± 0.039
[6], 0.00152 µM	0.869 ± 0.062
[6], 0.00457 µM	0.894 ± 0.058
[6], 0.01372 µM	0.896 ± 0.097
[6], 0.04115 µM	0.902 ± 0.084
[6], 0.1235 µM	0.849 ± 0.023
[6], 0.3704 µM	0.843 ± 0.03
[6], 1.111 µM	0.846 ± 0.075
[6], 3.333 µM	0.82 ± 0.047
[6], 10 µM	0.794 ± 0.018
[7], 0.00017 µM	1.03 ± 0.026
[7], 0.00051 µM	1.03 ± 0.035
[7], 0.00152 µM	1.01 ± 0.017
[7], 0.00457 µM	0.999 ± 0.03
[7], 0.01372 µM	0.959 ± 0.06
[7], 0.04115 µM	0.949 ± 0.037
[7], 0.1235 µM	0.91 ± 0.035
[7], 0.3704 µM	0.8785 ± 0.0036
[7], 1.111 µM	0.864 ± 0.017
[7], 3.333 µM	0.782 ± 0.026
[7], 10 µM	0.723 ± 0.029
[8], 0.00017 µM	0.917 ± 0.016
[8], 0.00051 µM	0.894 ± 0.019
[8], 0.00152 µM	0.918 ± 0.024
[8], 0.00457 µM	0.892 ± 0.02
[8], 0.01372 µM	0.815 ± 0.058
[8], 0.04115 µM	0.782 ± 0.012
[8], 0.1235 µM	0.75 ± 0.019
[8], 0.3704 µM	0.709 ± 0.036
[8], 1.111 µM	0.724 ± 0.043
[8], 3.333 µM	0.674 ± 0.029
[8], 10 µM	0.652 ± 0.008
[9], 0.00017 µM	0.994 ± 0.049
[9], 0.00051 µM	0.962 ± 0.051
[9], 0.00152 µM	0.959 ± 0.033
[9], 0.00457 µM	0.935 ± 0.087
[9], 0.01372 µM	0.949 ± 0.029
[9], 0.04115 µM	0.926 ± 0.029
[9], 0.1235 µM	0.882 ± 0.018
[9], 0.3704 µM	0.838 ± 0.032
[9], 1.111 µM	0.78 ± 0.037
[9], 3.333 µM	0.719 ± 0.045
[9], 10 µM	0.627 ± 0.054
[10], 0.00017 µM	1.04 ± 0.037
[10], 0.00051 µM	1.09 ± 0.043
[10], 0.00152 µM	1.06 ± 0.047
[10], 0.00457 µM	1.03 ± 0.043
[10], 0.01372 µM	1.03 ± 0.04
[10], 0.04115 µM	0.973 ± 0.067
[10], 0.1235 µM	0.969 ± 0.07
[10], 0.3704 µM	0.98 ± 0.047
[10], 1.111 µM	0.941 ± 0.029
[10], 3.333 µM	0.84 ± 0.024
[10], 10 µM	0.692 ± 0.048
[11], 0.00017 µM	0.871 ± 0.016
[11], 0.00051 µM	0.89 ± 0.02
[11], 0.00152 µM	0.855 ± 0.04
[11], 0.00457 µM	0.862 ± 0.037
[11], 0.01372 µM	0.847 ± 0.024
[11], 0.04115 µM	0.844 ± 0.036
[11], 0.1235 µM	0.754 ± 0.021
[11], 0.3704 µM	0.779 ± 0.036
[11], 1.111 µM	0.76 ± 0.041
[11], 3.333 µM	0.741 ± 0.047
[11], 10 µM	0.694 ± 0.046
[12], 0.00017 µM	0.942 ± 0.062
[12], 0.00051 µM	0.955 ± 0.056
[12], 0.00152 µM	0.953 ± 0.054
[12], 0.00457 µM	0.945 ± 0.037
[12], 0.01372 µM	0.875 ± 0.028
[12], 0.04115 µM	0.708 ± 0.032
[12], 0.1235 µM	0.6 ± 0.013
[12], 0.3704 µM	0.601 ± 0.045
[12], 1.111 µM	0.5484 ± 0.0052
[12], 3.333 µM	0.491 ± 0.016
[12], 10 µM	0.37 ± 0.0084
